What was measured:
Format in all cases: cell-based
[1] = system: mixed Klebsiella pneumoniae (ATCC 4352) and Enterobacter gergoviae (ATCC 33028); assay: CTFA-type challenge test, mixed K. pneumoniae + E. gergoviae inoculum; details: Make-up Remover at pH 8.1 with 0.83% Benzyl Alcohol
Source text: (§1) CTFA Challenge Test Procedure: A challenge protocol similar to the CTFA method was followed to assess efficacy against a broad spectrum of microorganisms. The five separate inocula were: Staphylococcus aureus (ATCC 6538), mixed Pseudomonas aeruginosa (ATCC 9027) and Burkholderia cepacia (ATCC 25416), mixed Klebsiella pneumoniae (ATCC 4352) and Enterobacter gergoviae (ATCC 33028), Candida albicans (ATCC 10231), and a mixture of molds: Aspergillus niger (ATCC 16404) and 2 Penicillium sp. isolated from cosmetic products. Samples (35 grams each) were inoculated with approximately 2,000,000 bacteria per gram or 100,000 yeast cells or mold spores per gram. Individual challenges were prepared from overnight slants of bacteria and yeast cultures and from heavily sporulating mold cultures, 7 to 10 days old. All samples were plated quantitatively for viable organisms after 24 hours and weekly for up to 4 weeks. Samples inoculated with mold spores were also plated after 48 hours. Samples were re-challenged after four weeks (or sooner where appropriate) and the same sampling regime followed.
(§2) Recommended “Pass” Criteria: CTFA recommends at least a 99.9% reduction of vegetative bacteria and at least a 90% reduction of yeasts and molds within 7 days following each challenge with no increase in count thereafter.
(§3) The preservative concentrates were added to these formulations to give a final concentration of 1%. […]

[2] = system: mixed Pseudomonas aeruginosa (ATCC 9027) and Burkholderia cepacia (ATCC 25416); assay: CTFA-type challenge test, mixed P. aeruginosa + B. cepacia inoculum; details: Make-up Remover at pH 8.1 with 0.83% Benzyl Alcohol
Source text: as §1, §2, §3

[3] = system: mixture of molds: Aspergillus niger (ATCC 16404) and 2 Penicillium sp.; assay: CTFA-type challenge test, mixed mold inoculum; details: for Colony Forming Units per Gram (CFU/g), Mixed Molds: Make-up Remover at pH 8.1 with 0.83% Benzyl Alcohol
Source text: as §1, §2, §3
To determine if the unexpected activity of ECT 4 at high pH (8.1) can be attributed solely to the activity of benzyl alcohol the high pH make-up remover was preserved with 1% ECT4 and with 0.83% benzyl alcohol (equivalent amount found in 1% ECT4).

[4] = system: Staphylococcus aureus (ATCC 6538); assay: CTFA-type challenge test, S. aureus inoculum; details: Make-up Remover at pH 8.1 with 0.83% Benzyl Alcohol
[5] = system: mixed Klebsiella pneumoniae (ATCC 4352) and Enterobacter gergoviae (ATCC 33028); assay: CTFA-type challenge test, mixed K. pneumoniae + E. gergoviae inoculum; details: Make-up Remover at pH 8.1 with 0.83% Benzyl Alcohol; Challenge #2; 48 Hours
[6] = system: mixed Pseudomonas aeruginosa (ATCC 9027) and Burkholderia cepacia (ATCC 25416); assay: CTFA-type challenge test, mixed P. aeruginosa + B. cepacia inoculum; details: Make-up Remover at pH 8.1 with 0.83% Benzyl Alcohol; Challenge #2; 48 Hours
[7] = system: Candida albicans (ATCC 10231); assay: CTFA-type challenge test, C. albicans inoculum; details: Make-up Remover at pH 8.1 with 0.83% Benzyl Alcohol
[8] = High pH Make-up Remover (pH 8.1), 0.83% benzyl alcohol

OCc1ccccc1 [benzyl alcohol]
1.2 × 10^5 CFU/g: Colony Forming Units per Gram (CFU/g), Mixed Molds ([3]; Challenge #1, 48 Hours)
3.0 × 10^4 CFU/g: Colony Forming Units per Gram (CFU/g), Mixed Molds ([3]; Challenge #1, 7 Days)
5.1 × 10^3 CFU/g: Colony Forming Units per Gram (CFU/g), Mixed Molds ([3]; Challenge #1, 28 Days)
not sufficiently efficacious: Efficacy against the mixed mold challenge [3, 8]
4.0 × 10^2 CFU/g: Colony Forming Units per Gram (CFU/g), Mixed Molds ([3]; Challenge #2, 28 Days)
1.6 × 10^2 CFU/g: Colony Forming Units per Gram (CFU/g), C. albicans ([7]; Challenge #1, 7 Days)
3.4 × 10^3 CFU/g: Colony Forming Units per Gram (CFU/g), Mixed Molds ([3]; Challenge #2, 7 Days)
1.5 × 10^4 CFU/g: Colony Forming Units per Gram (CFU/g), Mixed Molds ([3]; Challenge #1, 21 Days)
did not meet CTFA recommendations: CTFA recommendations for a minimum of 90% mold reduction in 7 days [3, 8]
3.6 × 10^3 CFU/g: Colony Forming Units per Gram (CFU/g), Mixed Molds ([3]; Challenge #2, 14 Days)
3.8 × 10^3 CFU/g: Colony Forming Units per Gram (CFU/g), Mixed Molds ([3]; Challenge #2, 48 Hours)
9.0 × 10^3 CFU/g: Colony Forming Units per Gram (CFU/g), Mixed Molds ([3]; Challenge #2, 21 Days)
8.0 × 10^4 CFU/g: Colony Forming Units per Gram (CFU/g), Mixed Molds ([3]; Challenge #1, 14 Days)
2.1 × 10^5 CFU/g: Colony Forming Units per Gram (CFU/g), Mixed Molds ([3]; Challenge #1, 24 Hours)
<1.0 × 10^2 CFU/g: Colony Forming Units per Gram (CFU/g), C. albicans ([7]; Challenge #2, 48 Hours)
<10 CFU/g: Colony Forming Units per Gram (CFU/g), K. pneumoniae + E. gergoviae ([1]; Challenge #1, 7 Days) | Colony Forming Units per Gram (CFU/g), K. pneumoniae + E. gergoviae ([1]; Challenge #1, 14 Days) | Colony Forming Units per Gram (CFU/g), K. pneumoniae + E. gergoviae ([1]; Challenge #1, 21 Days) | Colony Forming Units per Gram (CFU/g), K. pneumoniae + E. gergoviae ([1]; Challenge #1, 24 Hours) | Colony Forming Units per Gram (CFU/g), K. pneumoniae + E. gergoviae ([1]; Challenge #1, 28 Days) | Colony Forming Units per Gram (CFU/g), K. pneumoniae + E. gergoviae ([1]; Challenge #2, 7 Days) | Colony Forming Units per Gram (CFU/g), K. pneumoniae + E. gergoviae ([1]; Challenge #2, 14 Days) | Colony Forming Units per Gram (CFU/g), K. pneumoniae + E. gergoviae ([1]; Challenge #2, 21 Days) | Colony Forming Units per Gram (CFU/g), K. pneumoniae + E. gergoviae ([1]; Challenge #2, 28 Days) | Colony Forming Units per Gram (CFU/g), P. aeruginosa + B. cepacia ([2]; Challenge #1, 7 Days) | Colony Forming Units per Gram (CFU/g), P. aeruginosa + B. cepacia ([2]; Challenge #1, 14 Days) | Colony Forming Units per Gram (CFU/g), P. aeruginosa + B. cepacia ([2]; Challenge #1, 21 Days) | Colony Forming Units per Gram (CFU/g), P. aeruginosa + B. cepacia ([2]; Challenge #1, 24 Hours) | Colony Forming Units per Gram (CFU/g), P. aeruginosa + B. cepacia ([2]; Challenge #1, 28 Days) | Colony Forming Units per Gram (CFU/g), P. aeruginosa + B. cepacia ([2]; Challenge #2, 7 Days) | Colony Forming Units per Gram (CFU/g), P. aeruginosa + B. cepacia ([2]; Challenge #2, 14 Days) | Colony Forming Units per Gram (CFU/g), P. aeruginosa + B. cepacia ([2]; Challenge #2, 21 Days) | Colony Forming Units per Gram (CFU/g), P. aeruginosa + B. cepacia ([2]; Challenge #2, 28 Days) | Colony Forming Units per Gram (CFU/g), S. aureus ([4]; Challenge #1, 7 Days) | Colony Forming Units per Gram (CFU/g), S. aureus ([4]; Challenge #1, 14 Days) | Colony Forming Units per Gram (CFU/g), S. aureus ([4]; Challenge #1, 21 Days) | Colony Forming Units per Gram (CFU/g), S. aureus ([4]; Challenge #1, 24 Hours) | Colony Forming Units per Gram (CFU/g), S. aureus ([4]; Challenge #1, 28 Days) | Colony Forming Units per Gram (CFU/g), S. aureus ([4]; Challenge #2, 7 Days) | Colony Forming Units per Gram (CFU/g), S. aureus ([4]; Challenge #2, 14 Days) | Colony Forming Units per Gram (CFU/g), S. aureus ([4]; Challenge #2, 21 Days) | Colony Forming Units per Gram (CFU/g), S. aureus ([4]; Challenge #2, 28 Days) | Colony Forming Units per Gram (CFU/g), S. aureus ([4]; Challenge #2, 48 Hours) | Colony Forming Units per Gram (CFU/g), K. pneumoniae + E. gergoviae [5] | Colony Forming Units per Gram (CFU/g), P. aeruginosa + B. cepacia [6] | Colony Forming Units per Gram (CFU/g), C. albicans ([7]; Challenge #1, 14 Days) | Colony Forming Units per Gram (CFU/g), C. albicans ([7]; Challenge #1, 21 Days) | Colony Forming Units per Gram (CFU/g), C. albicans ([7]; Challenge #1, 28 Days) | Colony Forming Units per Gram (CFU/g), C. albicans ([7]; Challenge #2, 7 Days) | Colony Forming Units per Gram (CFU/g), C. albicans ([7]; Challenge #2, 14 Days) | Colony Forming Units per Gram (CFU/g), C. albicans ([7]; Challenge #2, 21 Days) | Colony Forming Units per Gram (CFU/g), C. albicans ([7]; Challenge #2, 28 Days)
3.1 × 10^4 CFU/g: Colony Forming Units per Gram (CFU/g), C. albicans ([7]; Challenge #1, 24 Hours)
